Laboratory results taken from patent US20260297081A1, “COMPOUNDS AND METHODS OF TREATING CANCERS” (Cullgen Inc., priority 2023, published 2026).

Assays:
Calu-1 cells = test: Anti-proliferation (viability) of NSCLC Calu-1 cells, 3 days (Table 7, FIG. 2B); type: cell-based; details: Homo sapiens, 72 h; Calu-1 cells, 3 days, 10-point serial dilution; read-out: GI IC50 in Calu-1
In short: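 Viability is read after treatment with compounds titrated over ten serial dilution points, with exposure lasting three days for the NSCLC line and six days for the breast cancer line.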

MCF7 cells = test: Anti-proliferation (viability) of MCF7 cells (Table 7, FIG. 2B); type: cell-based; details: Homo sapiens, MCF7, MCF7 cells, 3-6 days, 10-point serial dilution; read-out: GI IC50 in MCF-7

SMILES | IC50 (Calu-1 cells) | IC50 (MCF7 cells)
CC(=O)c1c(C)c2cnc(Nc3ccc(N4CCN(C5CCN(C(=O)[C@H]6CC[C@H](Nc7nc(NC(C)C)ccc7-c7nc8cnc(N(C)C)cc8[nH]7)CC6)C5)CC4)cn3)nc2n(C2CCCC2)c1=O (stereo partly drawn) [CPD-552, trans-6-acetyl-8-cyclopentyl-2-((5-(4-(1-(trans-4-((3-(6-(dimethylamino)-3H-imidazo[4,5-c]pyridin-2-yl)-6-(isopropylamino)pyridin-2-yl)amino)cyclohexane-1-carbonyl)pyrrolidin-3-yl)piperazin-1-yl)pyridin-2-yl)amino)-5-methylpyrido[2,3-d]pyrimidin-7(8H)-one] | ≥ 50 nM | > 100 nM
CCN1CCc2cc(-c3nc(Nc4ccc(CN5CCN(CC(=O)N6CC7(CC(Nc8nc(NC(C)C)ccc8C(=O)Nc8ccc(N(C)C)nn8)C7)C6)CC5)cn4)ncc3F)ccc2C1=O [CPD-553, N-(6-(dimethylamino)pyridazin-3-yl)-2-((2-(2-(4-((6-((4-(2-ethyl-1-oxo-1,2,3,4-tetrahydroisoquinolin-6-yl)-5-fluoropyrimidin-2-yl)amino)pyridin-3-yl)methyl)piperazin-1-yl)acetyl)-2-azaspiro[3.3]heptan-6-yl)amino)-6-(isopropylamino)nicotinamide] | ≥ 50 nM | > 100 nM
CCN1CCc2cc(-c3nc(Nc4ccc(CN5CCN(CC(=O)NC6CC7(C6)CC(Nc6nc(NC(C)C)ccc6C(=O)Nc6ccc(N(C)C)nn6)C7)CC5)cn4)ncc3F)ccc2C1=O (stereo not drawn) [CPD-554, N-(6-(dimethylamino)pyridazin-3-yl)-2-((6-(2-(4-((6-((4-(2-ethyl-1-oxo-1,2,3,4-tetrahydroisoquinolin-6-yl)-5-fluoropyrimidin-2-yl)amino)pyridin-3-yl)methyl)piperazin-1-yl)acetamido)spiro[3.3]heptan-2-yl)amino)-6-(isopropylamino)nicotinamide] | ≥ 50 nM | > 100 nM
CC(=O)c1c(C)c2cnc(Nc3ccc(N4CCN(C5CCN(C(=O)N6CC7(CCC(Nc8nc(NC(C)C)ccc8C(=O)Nc8ccc(N(C)C)nn8)CC7)C6)C5)CC4)cn3)nc2n(C2CCCC2)c1=O (stereo not drawn) [CPD-555, 2-((2-(3-(4-(6-((6-acetyl-8-cyclopentyl-5-methyl-7-oxo-7,8-dihydropyrido[2,3-d]pyrimidin-2-yl)amino)pyridin-3-yl)piperazin-1-yl)pyrrolidine-1-carbonyl)-2-azaspiro[3.5]nonan-7-yl)amino)-N-(6-(dimethylamino)pyridazin-3-yl)-6-(isopropylamino)nicotinamide] | ≤ 10 nM | 50 to 100 nM
CC(=O)c1c(C)c2cnc(Nc3ccc(N4CCN(C5CCN(C(=O)C6CCC7(CC(Nc8nc(NC(C)C)ccc8C(=O)Nc8ccc(N(C)C)nn8)C7)C6)C5)CC4)cn3)nc2n(C2CCCC2)c1=O (stereo not drawn) [CPD-556, 2-((6-(3-(4-(6-((6-acetyl-8-cyclopentyl-5-methyl-7-oxo-7,8-dihydropyrido[2,3-d]pyrimidin-2-yl)amino)pyridin-3-yl)piperazin-1-yl)pyrrolidine-1-carbonyl)spiro[3.4]octan-2-yl)amino)-N-(6-(dimethylamino)pyridazin-3-yl)-6-(isopropylamino)nicotinamide] | ≤ 10 nM | < 50 nM
CC(=O)c1cc2cnc(Nc3ccc(N4CCN(C5CCN(C(=O)[C@H]6CC[C@H](Nc7nc(NC(C)C)ccc7C(=O)Nc7ccc(N(C)C)nn7)CC6)C5)CC4)cn3)nc2n(C2CCCC2)c1=O (stereo partly drawn) [CPD-560, 2-((trans-4-(3-(4-(6-((6-acetyl-8-cyclopentyl-7-oxo-7,8-dihydropyrido[2,3-d]pyrimidin-2-yl)amino)pyridin-3-yl)piperazin-1-yl)pyrrolidine-1-carbonyl)cyclohexyl)amino)-N-(6-(dimethylamino)pyridazin-3-yl)-6-(isopropylamino)nicotinamide] | ≤ 10 nM | > 100 nM
[2H]C([2H])([2H])Nc1ccc(C(=O)Nc2cn3c(n2)CCC3)c(NC2CC3(C2)CN(C(=O)CC(N2CCN(c4ccc(Nc5ncc6c(C)c(C(C)=O)c(=O)n(C7CCCC7)c6n5)nc4)CC2)C(F)(F)F)C3)n1 (stereo not drawn) [CPD-567, 2-((2-(3-(4-(6-((6-acetyl-8-cyclopentyl-5-methyl-7-oxo-7,8-dihydropyrido[2,3-d]pyrimidin-2-yl)amino)pyridin-3-yl)piperazin-1-yl)-4,4,4-trifluorobutanoyl)-2-azaspiro[3.3]heptan-6-yl)amino)-N-(6,7-dihydro-5H-pyrrolo[1,2-a]imidazol-2-yl)-6-((methyl-d3)amino)nicotinamide] | ≤ 10 nM | 50 to 100 nM
[2H]C([2H])([2H])Nc1ccc(C(=O)Nc2cn3c(n2)CCC3)c(N[C@H]2CC[C@H](C(=O)N3CCC(N4CCN(c5ccc(Nc6ncc7c(C)c(C(C)=O)c(=O)n(C8CCCC8)c7n6)nc5)CC4)C3)CC2)n1 (stereo partly drawn) [CPD-569, 2-((trans-4-(3-(4-(6-((6-acetyl-8-cyclopentyl-5-methyl-7-oxo-7,8-dihydropyrido[2,3-d]pyrimidin-2-yl)amino)pyridin-3-yl)piperazin-1-yl)pyrrolidine-1-carbonyl)cyclohexyl)amino)-N-(6,7-dihydro-5H-pyrrolo[1,2-a]imidazol-2-yl)-6-((methyl-d3)amino)nicotinamide] | ≥ 50 nM | > 100 nM

The next lines start with the values.

IC50 (Calu-1 cells) | IC50 (MCF7 cells) | SMILES
≤ 10 nM | < 50 nM | CC(=O)c1c(C)c2cnc(Nc3ccc(CN4CCN(CC(=O)N5CCC6(CCC(Nc7nc(NC(C)C)ccc7C(=O)Nc7cn(C)c(C8CC8)n7)C6)C5)CC4)cn3)nc2n(C2CCCC2)c1=O (stereo not drawn) [CPD-548, 2-((2-(2-(4-((6-((6-acetyl-8-cyclopentyl-5-methyl-7-oxo-7,8-dihydropyrido[2,3-d]pyrimidin-2-yl)amino)pyridin-3-yl)methyl)piperazin-1-yl)acetyl)-2-azaspiro[4.4]nonan-7-yl)amino)-N-(2-cyclopropyl-1-methyl-1H-imidazol-4-yl)-6-(isopropylamino)nicotinamide]
≤ 10 nM | < 50 nM | CC(=O)c1c(C)c2cnc(Nc3ccc(CN4CCN(CC(=O)N5CCC6(CCC(Nc7nc(NC(C)C)ccc7C(=O)Nc7cc8n(n7)CCC8)C6)C5)CC4)cn3)nc2n(C2CCCC2)c1=O (stereo not drawn) [CPD-549, 2-((2-(2-(4-((6-((6-acetyl-8-cyclopentyl-5-methyl-7-oxo-7,8-dihydropyrido[2,3-d]pyrimidin-2-yl)amino)pyridin-3-yl)methyl)piperazin-1-yl)acetyl)-2-azaspiro[4.4]nonan-7-yl)amino)-N-(5,6-dihydro-4H-pyrrolo[1,2-b]pyrazol-2-yl)-6-(isopropylamino)nicotinamide]
10 to 50 nM | > 100 nM | CC(C)Nc1ccc(C(=O)Nc2ccc(N(C)C)nn2)c(N[C@H]2CC[C@H](C(=O)N3CCC(N4CCN(c5ccc(Nc6ncc7cc(C(F)F)c(=O)n(C8CCCC8)c7n6)nc5)CC4)C3)CC2)n1 (stereo partly drawn) [CPD-559, 2-((trans-4-(3-(4-(6-((8-cyclopentyl-6-(difluoromethyl)-7-oxo-7,8-dihydropyrido[2,3-d]pyrimidin-2-yl)amino)pyridin-3-yl)piperazin-1-yl)pyrrolidine-1-carbonyl)cyclohexyl)amino)-N-(6-(dimethylamino)pyridazin-3-yl)-6-(isopropylamino)nicotinamide]
≤ 10 nM | > 100 nM | CC(=O)c1c(C)c2cnc(Nc3ccc(N4CCN(C5CCN(C(=O)N6CCC7(CCC(Nc8nc(NC(C)C)ccc8C(=O)Nc8ccc(N(C)C)nn8)C7)C6)C5)CC4)cn3)nc2n(C2CCCC2)c1=O (stereo not drawn) [CPD-561, 2-((2-(3-(4-(6-((6-acetyl-8-cyclopentyl-5-methyl-7-oxo-7,8-dihydropyrido[2,3-d]pyrimidin-2-yl)amino)pyridin-3-yl)piperazin-1-yl)pyrrolidine-1-carbonyl)-2-azaspiro[4.4]nonan-7-yl)amino)-N-(6-(dimethylamino)pyridazin-3-yl)-6-(isopropylamino)nicotinamide]
10 to 50 nM | > 100 nM | CC(=O)c1c(C)c2cnc(Nc3ccc(CN4CCN(CC(=O)N5CCC(Nc6nc(NC(C)C)ccc6C(=O)Nc6cn7c(n6)CCC7)CC5)CC4)cn3)nc2n(C2CCCC2)c1=O [CPD-564, 2-((1-(2-(4-((6-((6-acetyl-8-cyclopentyl-5-methyl-7-oxo-7,8-dihydropyrido[2,3-d]pyrimidin-2-yl)amino)pyridin-3-yl)methyl)piperazin-1-yl)acetyl)piperidin-4-yl)amino)-N-(6,7-dihydro-5H-pyrrolo[1,2-a]imidazol-2-yl)-6-(isopropylamino)nicotinamide]
≤ 10 nM | < 50 nM | CC(=O)c1c(C)c2cnc(Nc3ccc(N4CCN(CC(=O)NC5CC6(C5)CC(Nc5nc(NC(C)C)ccc5C(=O)Nc5cn7c(n5)CCC7)C6)CC4)cn3)nc2n(C2CCCC2)c1=O (stereo not drawn) [CPD-566, 2-((6-(2-(4-(6-((6-acetyl-8-cyclopentyl-5-methyl-7-oxo-7,8-dihydropyrido[2,3-d]pyrimidin-2-yl)amino)pyridin-3-yl)piperazin-1-yl)acetamido)spiro[3.3]heptan-2-yl)amino)-N-(6,7-dihydro-5H-pyrrolo[1,2-a]imidazol-2-yl)-6-(isopropylamino)nicotinamide]
≤ 10 nM | > 100 nM | CC(=O)c1c(C)c2cnc(Nc3ccc(N4CCN(C5CCN(C(=O)[C@H]6CC[C@H](Nc7nc(NC(C)C)ccc7C(=O)Nc7cn8c(n7)CCC8)CC6)C5)CC4)cn3)nc2n(C2CCCC2)c1=O (stereo partly drawn) [CPD-568, 2-((trans-4-(3-(4-(6-((6-acetyl-8-cyclopentyl-5-methyl-7-oxo-7,8-dihydropyrido[2,3-d]pyrimidin-2-yl)amino)pyridin-3-yl)piperazin-1-yl)pyrrolidine-1-carbonyl)cyclohexyl)amino)-N-(6,7-dihydro-5H-pyrrolo[1,2-a]imidazol-2-yl)-6-(isopropylamino)nicotinamide]
